ChEMBL document CHEMBL1201862, “PubChem BioAssay data set” (2004)
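Cells were grown in 96-well plates and exposed to each compound for 48 hours at five concentrations; endpoints were interpolated linearly between bracketing concentrations, or set to the highest concentration if not reached. At the GI50, growth is halved.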 Calls of active or inactive are those of the source. No stated cut-off is given here; in the data, active = GI50 up to about 1.1 µM and inactive = higher.

What was measured:
Assay in all cases: growth of human tumour cells (NCI), 48 h
[1] = test system: CAKI-1
[2] = test system: HT-29
[3] = test system: K562
[4] = test system: LOX IMVI
[5] = test system: MDA-MB-435
[6] = test system: MDA-N
[7] = test system: MOLT-4
[8] = test system: NCI-H226
[9] = test system: NCI-H23
[10] = test system: NCI/ADR-RES
[11] = test system: OVCAR-8
[12] = test system: RXF 393
[13] = test system: SF-268
[14] = test system: SF-295
[15] = test system: SK-OV-3
[16] = test system: SNB-19
[17] = test system: SW-620
[18] = test system: U-251
[19] = test system: UACC-257
[20] = test system: UO-31

Row | Compound | GI50 [1] | GI50 [2] | GI50 [3] | GI50 [4] | GI50 [5] | GI50 [6] | GI50 [7] | GI50 [8] | GI50 [9] | GI50 [10] | GI50 [11] | GI50 [12] | GI50 [13] | GI50 [14] | GI50 [15] | GI50 [16] | GI50 [17] | GI50 [18] | GI50 [19] | GI50 [20]
1 | COC(=O)c1sc(C(=O)OC)c2c1CSC2 | > 93.5 µM (inactive) | > 100 µM (inactive) | > 100 µM (inactive) | > 94.6 µM (inactive) | > 100 µM (inactive) | > 100 µM (inactive) | > 100 µM (inactive) | > 70.6 µM (inactive) | > 72.1 µM (inactive) | > 100 µM (inactive) | 79.6 µM (inactive) | 47.5 µM (inactive) | 54.1 µM (inactive) | 51.3 µM (inactive) | > 100 µM (inactive) | 51.8 µM (inactive) | > 100 µM (inactive) | 40.3 µM (inactive) | > 100 µM (inactive) | > 100 µM (inactive)
2 | COC(=O)C(Cc1c(-c2[nH]c3ccccc3c2CC(NC(C)=O)C(=O)OC)[nH]c2ccccc12)NC(C)=O (stereo not given) | > 100 µM (inactive) | > 100 µM (inactive) | > 100 µM (inactive) | > 100 µM (inactive) | > 100 µM (inactive) | > 100 µM (inactive) | > 100 µM (inactive) | > 100 µM (inactive) | > 100 µM (inactive) | > 100 µM (inactive) | > 100 µM (inactive) | > 100 µM (inactive) | > 100 µM (inactive) | > 100 µM (inactive) | > 100 µM (inactive) | > 100 µM (inactive) | > 100 µM (inactive) | > 100 µM (inactive) | > 100 µM (inactive) | > 100 µM (inactive)
3 | N#CC1=C(N)OC2=C(CCCc3ccccc32)C1c1ccc([N+](=O)[O-])cc1 (stereo not given) | 29.6 µM (inactive) | 12.2 µM (inactive) | 2.07 µM (inactive) | 19.1 µM (inactive) | 15.9 µM (inactive) | 15.9 µM (inactive) | 0.336 µM (active) | 24.7 µM (inactive) | 15.2 µM (inactive) | 11.9 µM (inactive) | 17.9 µM (inactive) | 13.2 µM (inactive) | 15.1 µM (inactive) | 14.9 µM (inactive) | 30.9 µM (inactive) | 17.3 µM (inactive) | 13.6 µM (inactive) | 15.5 µM (inactive) | 14.8 µM (inactive) | 11.8 µM (inactive)
4 | CC(NC1=CC(=O)c2ncccc2C1=O)C(O)c1ccccc1 (stereo not given) | 6.78 µM (inactive) | 11.5 µM (inactive) | 2.04 µM (inactive) | 1.8 µM (inactive) | 1.59 µM (inactive) | 1.58 µM (inactive) | 8.63 µM (inactive) | 5.55 µM (inactive) | 1.62 µM (inactive) | 8.15 µM (inactive) | 4.37 µM (inactive) | 7.76 µM (inactive) | 12.2 µM (inactive) | 3.32 µM (inactive) | 16.1 µM (inactive) | 6.35 µM (inactive) | 4.9 µM (inactive) | 2.61 µM (inactive) | 1.91 µM (inactive) | 2.95 µM (inactive)
5 | Cc1cn(C2CC(N=[N+]=[N-])C(CO)O2)c(=O)n(CCCCO)c1=O (stereo not given) | > 100 µM (inactive) | > 100 µM (inactive) | > 100 µM (inactive) | > 100 µM (inactive) | > 100 µM (inactive) | > 100 µM (inactive) | > 100 µM (inactive) | > 100 µM (inactive) | > 100 µM (inactive) | > 100 µM (inactive) | > 100 µM (inactive) | > 100 µM (inactive) | > 100 µM (inactive) | > 100 µM (inactive) | > 100 µM (inactive) | > 100 µM (inactive) | > 100 µM (inactive) | > 100 µM (inactive) | > 100 µM (inactive) | > 100 µM (inactive)
6 | N#CC(NNC(=O)Cc1ccccc1)c1c(O)ccc2ccccc12 (stereo not given) | 4.91 µM (inactive) | 11.3 µM (inactive) | 3.69 µM (inactive) | 1.47 µM (inactive) | 10.4 µM (inactive) | 7.5 µM (inactive) | 2.23 µM (inactive) | 18.4 µM (inactive) | 4.89 µM (inactive) | 2.92 µM (inactive) | 4.17 µM (inactive) | 7 µM (inactive) | 3.45 µM (inactive) | 4.63 µM (inactive) | 4.84 µM (inactive) | 9.79 µM (inactive) | 6.98 µM (inactive) | 3.72 µM (inactive) | 3.59 µM (inactive) | 2.84 µM (inactive)
